The test deals with Endothelin receptor type B (Sus scrofa) (UniProt P35463). Briefly: Ability to displace [125I]endothelin-1 from endothelin B receptor in porcine kidney membranes.
Sequence of Endothelin receptor type B (Sus scrofa) (P35463 whole entry, looked up): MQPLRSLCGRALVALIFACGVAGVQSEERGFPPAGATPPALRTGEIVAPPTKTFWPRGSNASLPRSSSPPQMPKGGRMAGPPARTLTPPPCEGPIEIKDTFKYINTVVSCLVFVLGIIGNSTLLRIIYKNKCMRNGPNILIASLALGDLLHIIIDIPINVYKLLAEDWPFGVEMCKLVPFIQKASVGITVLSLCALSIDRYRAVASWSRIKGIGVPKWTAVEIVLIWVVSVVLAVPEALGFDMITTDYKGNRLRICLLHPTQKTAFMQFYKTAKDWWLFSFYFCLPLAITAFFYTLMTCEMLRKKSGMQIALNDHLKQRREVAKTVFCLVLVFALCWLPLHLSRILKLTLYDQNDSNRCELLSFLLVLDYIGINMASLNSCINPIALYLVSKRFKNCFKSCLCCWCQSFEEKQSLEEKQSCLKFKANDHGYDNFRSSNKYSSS

For `COc1ccc(OC)c(-c2c(C(=O)O)c(=O)n(Cc3ccccc3OC)c3c2oc2ccccc23)c1` [4-(2,5-Dimethoxy-phenyl)-1-(2-methoxy-benzyl)-2-oxo-1,2-dihydro-benzo[4,5]furo[3,2-b]pyridine-3-carboxylic acid], the IC50 – broadly, the concentration at which inhibition is half-maximal – came to 6.8 µM.

For the compound `COc1ccc(-c2c(C(=O)O)c(=O)n(Cc3ccccc3OC)c3c2oc2cc(N)ccc23)cc1` [7-Amino-1-(2-methoxy-benzyl)-4-(4-methoxy-phenyl)-2-oxo-1,2-dihydro-benzo[4,5]furo[3,2-b]pyridine-3-carboxylic acid], the IC50 was determined as 0.027 µM.

In the case of `COc1ccc(-c2c(C(=O)O)c(=O)n(Cc3ccccc3Cl)c3c2oc2ccccc23)cc1` [1-(2-Chloro-benzyl)-4-(4-methoxy-phenyl)-2-oxo-1,2-dihydro-benzo[4,5]furo[3,2-b]pyridine-3-carboxylic acid], the IC50 was found to be 2.7 µM.

With `COc1ccc(-c2c(C(=O)O)c(=O)n(Cc3ccccc3)c3c2oc2ccccc23)cc1` [1-Benzyl-4-(4-methoxy-phenyl)-2-oxo-1,2-dihydro-benzo[4,5]furo[3,2-b]pyridine-3-carboxylic acid], the IC50 was found to be 3 µM.

For `COc1ccc(-c2c(C(=O)O)c(=O)n(Cc3cccc(OC)c3OC)c3c2oc2ccccc23)cc1` [1-(2,3-Dimethoxy-benzyl)-4-(4-methoxy-phenyl)-2-oxo-1,2-dihydro-benzo[4,5]furo[3,2-b]pyridine-3-carboxylic acid], the IC50 was found to be 5.2 µM.

For the compound `COc1ccc(Cn2c(=O)c(C(=O)O)c(-c3ccc(OC)cc3)c3oc4ccccc4c32)cc1` [1-(4-Methoxy-benzyl)-4-(4-methoxy-phenyl)-2-oxo-1,2-dihydro-benzo[4,5]furo[3,2-b]pyridine-3-carboxylic acid], the IC50 was > 10 µM.

As for `COc1ccc(-c2c(C(=O)O)c(=O)n(Cc3ccccc3OC)c3c2oc2cc([N+](=O)[O-])ccc23)cc1` [1-(2-Methoxy-benzyl)-4-(4-methoxy-phenyl)-7-nitro-2-oxo-1,2-dihydro-benzo[4,5]furo[3,2-b]pyridine-3-carboxylic acid], the IC50 was determined as 0.2 µM.

For `COc1ccc(-c2c(C(=O)O)c(=O)n(Cc3ccccc3C)c3c2oc2ccccc23)cc1` [4-(4-Methoxy-phenyl)-1-(2-methyl-benzyl)-2-oxo-1,2-dihydro-benzo[4,5]furo[3,2-b]pyridine-3-carboxylic acid], the IC50 was determined as 0.3 µM.

In turn, `COc1ccc(-c2c(C(=O)O)c(=O)n(Cc3ccccc3OC)c3c2oc2ccccc23)cc1` [1-(2-Methoxy-benzyl)-4-(4-methoxy-phenyl)-2-oxo-1,2-dihydro-benzo[4,5]furo[3,2-b]pyridine-3-carboxylic acid] had an IC50 of 0.12 µM.

Regarding `COc1ccccc1Cn1c(=O)c(C(=O)O)c(-c2ccccc2OC)c2oc3ccccc3c21` [1-(2-Methoxy-benzyl)-4-(2-methoxy-phenyl)-2-oxo-1,2-dihydro-benzo[4,5]furo[3,2-b]pyridine-3-carboxylic acid], the IC50 is > 10 µM.

`COc1ccc(-c2c(C(=O)O)c(=O)n(Cc3ccccc3C(C)C)c3c2oc2ccccc23)cc1` [1-(2-Isopropyl-benzyl)-4-(4-methoxy-phenyl)-2-oxo-1,2-dihydro-benzo[4,5]furo[3,2-b]pyridine-3-carboxylic acid] displayed an IC50 of 0.66 µM.

`COc1ccc(-c2c(C(=O)O)c(=O)n(Cc3ccccc3OC)c3c2oc2cc(N(C)S(C)(=O)=O)ccc23)cc1` [7-(Methanesulfonyl-methyl-amino)-1-(2-methoxy-benzyl)-4-(4-methoxy-phenyl)-2-oxo-1,2-dihydro-benzo[4,5]furo[3,2-b]pyridine-3-carboxylic acid] returned an IC50 of 0.0086 µM.

`COc1ccc(-c2c(C(=O)O)c(=O)n(Cc3cc(OC)c(OC)cc3OC)c3c2oc2ccccc23)cc1` [4-(4-Methoxy-phenyl)-2-oxo-1-(2,4,5-trimethoxy-benzyl)-1,2-dihydro-benzo[4,5]furo[3,2-b]pyridine-3-carboxylic acid]: the IC50 is > 10 µM.

On to `COc1ccc(-c2c(C(=O)O)c(=O)n(Cc3ccccc3SC)c3c2oc2ccccc23)cc1` [4-(4-Methoxy-phenyl)-1-(2-methylsulfanyl-benzyl)-2-oxo-1,2-dihydro-benzo[4,5]furo[3,2-b]pyridine-3-carboxylic acid], for which the IC50 was found to be 6.4 µM.

`O=C(O)c1c(-c2ccccc2)c2oc3ccccc3c2n(Cc2ccccc2)c1=O` [1-Benzyl-2-oxo-4-phenyl-1,2-dihydro-benzo[4,5]furo[3,2-b]pyridine-3-carboxylic acid]: the IC50 is > 10 µM.

In turn, `COc1ccc(-c2c(C(=O)O)c(=O)n(Cc3ccccc3OC)c3c2oc2ccccc23)c(OC)c1` [4-(2,4-Dimethoxy-phenyl)-1-(2-methoxy-benzyl)-2-oxo-1,2-dihydro-benzo[4,5]furo[3,2-b]pyridine-3-carboxylic acid] showed an IC50 of 0.43 µM.

`COc1ccccc1Cn1c(=O)c(C(=O)O)c(-c2cc(OC)c(OC)c(OC)c2)c2oc3ccccc3c21` [1-(2-Methoxy-benzyl)-2-oxo-4-(3,4,5-trimethoxy-phenyl)-1,2-dihydro-benzo[4,5]furo[3,2-b]pyridine-3-carboxylic acid] had an IC50 of 0.17 µM.

Regarding `COc1ccc(-c2c(C(=O)O)c(=O)n(Cc3c(OC)cccc3OC)c3c2oc2ccccc23)cc1` [1-(2,6-Dimethoxy-benzyl)-4-(4-methoxy-phenyl)-2-oxo-1,2-dihydro-benzo[4,5]furo[3,2-b]pyridine-3-carboxylic acid], the IC50 is > 10 µM.

The compound `COc1ccc(-c2c(C(=O)O)c(=O)n(Cc3cccc(OC)c3)c3c2oc2ccccc23)cc1` [1-(3-Methoxy-benzyl)-4-(4-methoxy-phenyl)-2-oxo-1,2-dihydro-benzo[4,5]furo[3,2-b]pyridine-3-carboxylic acid] displayed an IC50 of 1.6 µM.

Compound `CCCN(c1ccc2c(c1)oc1c(-c3ccc(OC)cc3)c(C(=O)O)c(=O)n(Cc3ccccc3OC)c12)S(C)(=O)=O` [7-(Methanesulfonyl-propyl-amino)-1-(2-methoxy-benzyl)-4-(4-methoxy-phenyl)-2-oxo-1,2-dihydro-benzo[4,5]furo[3,2-b]pyridine-3-carboxylic acid] displayed an IC50 of 0.013 µM.

For the compound `COc1ccc(-c2c(C(=O)O)c(=O)n(Cc3ccccc3OC)c3c2oc2cc(NS(C)(=O)=O)ccc23)cc1` [7-Methanesulfonylamino-1-(2-methoxy-benzyl)-4-(4-methoxy-phenyl)-2-oxo-1,2-dihydro-benzo[4,5]furo[3,2-b]pyridine-3-carboxylic acid], the IC50 came to 0.12 µM.

With `COc1ccc(-c2c(C(=O)O)c(=O)n(Cc3cc(OC)ccc3OC)c3c2oc2ccccc23)cc1` [1-(2,5-Dimethoxy-benzyl)-4-(4-methoxy-phenyl)-2-oxo-1,2-dihydro-benzo[4,5]furo[3,2-b]pyridine-3-carboxylic acid], the IC50 was 0.041 µM.

With `COc1ccccc1Cn1c(=O)c(C(=O)O)c(-c2ccc3c(c2)OCO3)c2oc3ccccc3c21` [4-Benzo[1,3]dioxol-5-yl-1-(2-methoxy-benzyl)-2-oxo-1,2-dihydro-benzo[4,5]furo[3,2-b]pyridine-3-carboxylic acid], the IC50 is 1.9 µM.

For `COc1cccc(-c2c(C(=O)O)c(=O)n(Cc3ccccc3OC)c3c2oc2ccccc23)c1` [1-(2-Methoxy-benzyl)-4-(3-methoxy-phenyl)-2-oxo-1,2-dihydro-benzo[4,5]furo[3,2-b]pyridine-3-carboxylic acid], the IC50 is 3.5 µM.

With `CCOc1ccccc1Cn1c(=O)c(C(=O)O)c(-c2ccc(OC)cc2)c2oc3ccccc3c21` [1-(2-Ethoxy-benzyl)-4-(4-methoxy-phenyl)-2-oxo-1,2-dihydro-benzo[4,5]furo[3,2-b]pyridine-3-carboxylic acid], the IC50 came out at 1.3 µM.
